# Species on record: Rattus norvegicus
# Test: Open TG-GATES - Regimen: Single
# Type: toxicity, organism-based, Sprague-Dawley
# Parameters: regimen Single, gender Male, age 6 weeks
# Settings: in vivo, po, 0 mg/kg, route gavage, dose level Control; for APTT / Bas / Eos / Fbg / Ht / MCH / MCHC / MCV / Mono / PT / Plat / RBC / Ret / WBC: tissue Blood; for KIDNEY_L / KIDNEY_R / KIDNEY_TOTAL: tissue Kidney; for LIVER: tissue Liver; for ALP / AST / BUN / CRE / Ca / Cl / DBIL / GLC / IP / K / LDH / Na / PL / RALB / TBIL / TC / TG / TP / gamma-GTP: tissue Plasma
smiles,measurement,setting,value
CC(=O)Nc1nnc(S(N)(=O)=O)s1 [ACETAZOLAMIDE],TERMINAL_BW,3 h,214.4 g
same,APTT,3 h,22 s
same,Bas,3 h,0%
same,Eos,3 h,0.8%
same,Fbg,3 h,309 mg/dL
same,Ht,3 h,39.4%
same,MCH,3 h,21.3 pg
same,MCHC,3 h,32.9%
same,MCV,3 h,64.8 fL
same,Mono,3 h,2.4%
same,PT,3 h,16.5 s
same,Plat,3 h,118.6 x10_4/uL
same,RBC,3 h,608.6 x10_4/ul
same,Ret,3 h,8.8%
same,WBC,3 h,89.5 x10_2/uL
same,KIDNEY_L,3 h,0.9 g
same,KIDNEY_R,3 h,0.9 g
same,KIDNEY_TOTAL,3 h,1.9 g
same,LIVER,3 h,9.8 g
same,ALP,3 h,1586.4 IU/L
same,AST,3 h,80.2 IU/L
same,BUN,3 h,12 mg/dL
same,CRE,3 h,0.2 mg/dL
same,Ca,3 h,11.1 mg/dL
same,Cl,3 h,106.4 meq/L
same,DBIL,3 h,0 mg/dL
same,GLC,3 h,187.4 mg/dL
same,IP,3 h,8.2 mg/dL
same,K,3 h,4 meq/L
same,LDH,3 h,235.8 IU/L
same,Na,3 h,143 meq/L
same,PL,3 h,137.6 mg/dL
same,RALB,3 h,3.1 g/dL
same,TBIL,3 h,0.018 mg/dL
same,TC,3 h,78 mg/dL
same,TG,3 h,59.8 mg/dL
same,TP,3 h,5.4 g/dL
same,gamma-GTP,3 h,1 IU/L
same,TERMINAL_BW,6 h,207.4 g
same,APTT,6 h,22.1 s
same,Bas,6 h,0%
same,Eos,6 h,0.8%
same,Fbg,6 h,320.2 mg/dL
same,Ht,6 h,39.1%
same,MCH,6 h,20.8 pg
same,MCV,6 h,62.8 fL
same,Mono,6 h,2%
same,PT,6 h,16.5 s
same,Plat,6 h,131.7 x10_4/uL
same,RBC,6 h,622.4 x10_4/ul
same,Ret,6 h,8.3%
same,WBC,6 h,79.7 x10_2/uL
same,KIDNEY_L,6 h,1 g
same,KIDNEY_R,6 h,0.9 g
same,KIDNEY_TOTAL,6 h,1.9 g
same,LIVER,6 h,9 g
same,ALP,6 h,1340.2 IU/L
same,AST,6 h,63.4 IU/L
same,CRE,6 h,0.1 mg/dL
same,Ca,6 h,11 mg/dL
same,Cl,6 h,105 meq/L
same,DBIL,6 h,0 mg/dL
same,GLC,6 h,186.6 mg/dL
same,IP,6 h,9.4 mg/dL
same,K,6 h,4.3 meq/L
same,LDH,6 h,183.6 IU/L
same,Na,6 h,141 meq/L
same,PL,6 h,127.8 mg/dL
same,RALB,6 h,3 g/dL
same,TBIL,6 h,0.024 mg/dL
same,TC,6 h,78 mg/dL
same,TG,6 h,48.2 mg/dL
same,TP,6 h,5.3 g/dL
same,gamma-GTP,6 h,1.2 IU/L
same,TERMINAL_BW,9 h,212.2 g
same,APTT,9 h,21.9 s
same,Bas,9 h,0%
same,Eos,9 h,0.6%
same,Fbg,9 h,293 mg/dL
same,Ht,9 h,39.7%
same,MCH,9 h,20.8 pg
same,MCHC,9 h,32.3%
same,MCV,9 h,64.3 fL
same,Mono,9 h,2.2%
same,PT,9 h,16.8 s
same,Plat,9 h,115.3 x10_4/uL
same,RBC,9 h,616.6 x10_4/ul
same,Ret,9 h,8.4%
same,WBC,9 h,84.8 x10_2/uL
same,KIDNEY_L,9 h,1 g
same,KIDNEY_R,9 h,1 g
same,KIDNEY_TOTAL,9 h,1.9 g
same,LIVER,9 h,8.8 g
same,ALP,9 h,1423.8 IU/L
same,AST,9 h,70.8 IU/L
same,BUN,9 h,11 mg/dL
same,CRE,9 h,0.1 mg/dL
same,Ca,9 h,10.9 mg/dL
same,Cl,9 h,104.8 meq/L
same,DBIL,9 h,0 mg/dL
same,GLC,9 h,193 mg/dL
same,IP,9 h,9.3 mg/dL
same,K,9 h,4.1 meq/L
same,LDH,9 h,163.2 IU/L
same,Na,9 h,141.6 meq/L
same,PL,9 h,113.2 mg/dL
same,RALB,9 h,3.1 g/dL
same,TBIL,9 h,0.024 mg/dL
same,TC,9 h,70.2 mg/dL
same,TG,9 h,49.8 mg/dL
same,TP,9 h,5.4 g/dL
same,gamma-GTP,9 h,1.2 IU/L
same,TERMINAL_BW,24 h,228.8 g
same,APTT,24 h,20.3 s
same,Bas,24 h,0%
same,Eos,24 h,0.6%
same,Fbg,24 h,288.8 mg/dL
same,Ht,24 h,38.7%
same,MCH,24 h,20.8 pg
same,MCHC,24 h,33.2%
same,MCV,24 h,62.9 fL
same,Mono,24 h,1.6%
same,PT,24 h,16.1 s
same,Plat,24 h,110.7 x10_4/uL
same,RBC,24 h,616.2 x10_4/ul
same,Ret,24 h,7.9%
same,WBC,24 h,66.7 x10_2/uL
same,KIDNEY_L,24 h,1 g
same,KIDNEY_R,24 h,1 g
same,KIDNEY_TOTAL,24 h,2 g
same,LIVER,24 h,10.7 g
same,ALP,24 h,1945.2 IU/L
same,AST,24 h,80.8 IU/L
same,BUN,24 h,15.8 mg/dL
same,CRE,24 h,0.1 mg/dL
same,Ca,24 h,10.7 mg/dL
same,Cl,24 h,105.8 meq/L
same,DBIL,24 h,0 mg/dL
same,GLC,24 h,201.2 mg/dL
same,IP,24 h,7.7 mg/dL
same,K,24 h,4.1 meq/L
same,LDH,24 h,185.8 IU/L
same,Na,24 h,141.6 meq/L
same,PL,24 h,137.4 mg/dL
same,RALB,24 h,3 g/dL
same,TBIL,24 h,0.004 mg/dL
same,TC,24 h,71.8 mg/dL
same,TG,24 h,97 mg/dL
same,TP,24 h,5.4 g/dL
